The test system of assay [1] is Raji (Burkitt's lymphoma) cells. In words: Raji i.p. tumor model, study of FIG. 23 (Table 2). The class given is in vivo, NSG mice. Conditions: single agent alone, compared to untreated. As for the experimental part: FIG. 23 is a graphic of an efficacy study of FcR-UDC I-NK cells plus Rituximab in a Raji i.p. tumor model. NSG mice were irradiated and injected (i.p.) with Raji tumor cells (3×10^5). At day 4, FcR-UDC I-NK cells or PB-NK cells (each 5×10^6) with or without Rituximab (300 μg) was administered. At day 7, an additional dose of Rituximab (300 μg) was administered. Imaging/monitoring of the NSG mice occur at indicated time points through day 120.
FIGS. 24A-24C illustrate (FIG. 24A) a survival curve and (FIGS. 24B-24C) tumor burden following the efficacy study of FIG. 23. […] In FIGS. 24B-24C, FcR-UDC I-NK cells plus Rituximab and PB-NK plus Rituximab provided a durable response in delaying tumor onset through day 60 in 50% of the mice.
The efficacy of the UDC-NK cells against tumors in vivo was studied in a Raji intraperitoneal (i.p.) tumor model.
In FIG. 23, NSG mice were irradiated and injected i.p. with Raji (Burkitt's lymphoma) cells (3×10^5 cells). Raji cells are resistant to NK cells in the absence of an anti-CD20 antibody. At day four, 5×10^6 FcR-UDC I-NK cells and/or Rituximab (300 μg) was administered to the NSG mice. At day 7, a second dose of Rituximab (300 μg) was administered. […] The NSG mice were imaged and assessed for survival, BLI (tumor burden), and body weight and other health conditions at various days through day 121. […]

The subject of assay [2] is human PSC-derived engineered NK cells. In words: effect of UM171 on NK differentiation (Step 2). Conditions: 35 nM UM171 versus no UM171. In kind it is cell-based. From the text:
FIGS. 2A-2C are bar graphs illustrating the cell yield (FIG. 2A), percentage of CD56+CD45^+ cells (FIG. 2B), and cell viability (FIG. 2C) resulting from the method of producing human PSC-derived engineered NK cells (FcR-UDC I-NK cells) described herein.
Parental and engineered UDC PSCs (collectively, “PSCs”) were thawed, expanded, and cultured in mTeSR™ (STEMCELL Technologies, Cambridge, MA) feeder-free, animal component-free media for up to seven days on vitronectin. The PSCs were dissociated into single cells and transferred into microwell plates and cultured in STEMdiff™ APEL™2 and Gibco® PFHM-II media (STEMCELL Technologies, Cambridge, MA; ThermoFisher Scientific, Waltham, MA) for fourteen days to differentiate into precursor cells (via embryoid bodies) capable of differentiating to hematopoietic cell types, endothelial cell types, and/or mesodermal derivatives. The media was supplemented with BMP4 (20 ng/ml), VEGF (20 ng/ml), and SCF (40 ng/ml). Half media changes were performed every other day starting on day 3. The embryoid bodies were replated on DLL4/Retronectin-coated T75 flasks to differentiate into NK cells. The embryoid bodies were cultured under feeder free conditions in differentiation media comprising SCF (20 ng/ml), IL-7 (20 ng/ml), IL-15 (10 ng/ml), Flt3L (10 ng/mL), IL-3 ([…]) and 35 nM UM171 for 21 days in modified DMEM/F12. […]

A further assay addresses T1, claudin 6 (CLDN6) (UniProt P56747).
T1 sequence (looked up): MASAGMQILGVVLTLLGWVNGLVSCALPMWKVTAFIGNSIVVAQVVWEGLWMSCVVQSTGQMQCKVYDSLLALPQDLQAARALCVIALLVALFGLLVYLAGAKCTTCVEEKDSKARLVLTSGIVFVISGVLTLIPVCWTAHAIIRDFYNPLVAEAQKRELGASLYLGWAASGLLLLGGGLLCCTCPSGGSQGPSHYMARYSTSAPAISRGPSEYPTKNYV
In words: cell-based or functional assay.

Turning to Rituximab, the mean survival result in assay [1] was “increased mean survival”. Take `Br.Br.Cn1nnc(-c2ccc3c(c2)[nH]c2nc(Cc4ccccc4)nc(N[C@H]4CC[C@H](N)CC4)c23)n1.O.O` [UM171, (1r,4r)-N1-(2-benzyl-7-(2-methyl-2H-tetrazol-5-yl)-9H-pyrimidol [4,5-b]indol-4-yl)cyclohexane-1,4-diamine dihydrobromide dihydrate]: in assay [2], the “UDC-NK cell yield during NK differentiation” value was “improved UDC-NK cell yield”.

With ASP1893 mAb (antibody), the EC50 of ADCC (specific lysis of PA-1 cells by FcR-UDC I-NK cells, four-hour flow-based assay, antibody titrated) with claudin 6 (CLDN6) stood at 4.32 ng/mL.

B1: ASP1650 (antibody, from another filing, V domains shown)
VH: EVQLQQSGPELVKPGASMKISCKASGYSFTGYTMNWVKQSHGKNLEWIGLINPYNGGTIYNQKFKGKATLTVDKSSSTAYMELLSLTSEDSAVYYCARDYGFVLDYWGQGTTLTVSS
VL: IVLTQSPAIMSASPGEKVTITCSASSSVSYLHWFQQKPGTSPKLWVYSTSNLPSGVPARFGGSGSGTSYSLTISRMEAEDAATYYCQQRSIYPPWTFGGGTKLEIKR
For B1, in the assay with claudin 6 (CLDN6), the EC50 of ADCC (specific lysis of PA-1 cells by FcR-UDC I-NK cells, four-hour flow-based assay, antibody titrated) turned out to be 8.49 ng/mL.

Source of the values: US20260209705A1, “ENGINEERED NATURAL KILLER CELLS AND RELATED METHODS” (ASTELLAS PHARMA INC., priority 2022, published 2026).
